Results taken from patent US7192952B2, “Heterocyclic compounds that are inhibitors of the enzyme DPP-IV” (Novo Nordisk, A/S, priority 2001, dated 2007).
Counter-ions that a name gives are not always drawn.

Row | melting point | Compound
1 | 166 to 169 °C | Cn1c(=O)c2c(nc(N3CC[C@H](N)C3)n2Cc2ccccc2)n(C)c1=O (as salt: HCl) [Example 3, (S) 8-(3-Aminopyrrolidin-1-yl)-7-benzyl-1,3-dimethyl-3,7-dihydropurine-2,6-dione]
2 | 104 to 117 °C | Cn1c(=O)c2c(nc(N3CC[C@H](N)C3)n2Cc2ccccc2C#N)n(C)c1=O (as salt: HCl) [Example 8, (S) 2-(8-(3-Aminopyrrolidin-1-yl)-1,3-dimethyl-2,6-dioxo-1,2,3,6-tetrahydropurin-7-ylmethyl)benzonitrile]
3 | 215 to 217 °C | Cn1c(=O)c2c(nc(N3CC[C@H](N)C3)n2Cc2ccccc2Br)n(C)c1=O (as salt: HCl) [Example 12, (S) 8-(3-Aminopyrrolidin-1-yl)-7-(2-bromobenzyl)-1,3-dimethyl-3,7-dihydropurine-2,6-dione]
